ChEMBL document CHEMBL1944567, “Synthesis, biological evaluation, and molecular modeling of chalcone derivatives as potent inhibitors of Mycobacterium tuberculosis protein tyrosine phosphatases (PtpA and PtpB)” (J Med Chem, 2012)

Biological target: T1, Low molecular weight protein-tyrosine phosphatase A (Mycobacterium tuberculosis, UniProt P9WIA1)
T1 sequence (P9WIA1 whole entry): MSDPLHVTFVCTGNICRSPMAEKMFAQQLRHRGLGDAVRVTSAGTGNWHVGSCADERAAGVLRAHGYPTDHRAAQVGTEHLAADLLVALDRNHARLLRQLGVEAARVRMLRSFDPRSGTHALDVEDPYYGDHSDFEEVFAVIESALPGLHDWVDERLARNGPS
Experiment: Inhibition of Mycobacterium tuberculosis PTP-A

Compound	IC50 [µM]
COc1cc(-c2[nH]ccc2Cl)oc1C1=C2N=C3C=C2[C@H](C(C)C)[C@H]1CCCCCCCC3 [ROSEOPHILIN]	8.8
CCCCCC1=C/C(=C/c2[nH]c(-c3ccc[nH]3)cc2OC)N=C1C [PRODIGIOSIN]	8.8
